How the values were obtained:
[1] = Intracellular MTX and MTXPG levels in RBCs of polyarthritis patients receiving low-dose MTX; format: in vivo, human; settings: one patient on 2.5 mg per week MTX, RBC
Experimental: Blood samples (5 ml) from polyarthritis patients receiving low-dose MTX were collected after written informed consent. The patients had received a median of 15 mg MTX (range 2.5 mg to 40 mg per week) for at least three months. Blood samples were centrifuged for 10 minutes to separate plasma and buffy coat from RBCs. After washing the RBC pellet with 2 volumes of saline, RBC count was determined with a Beckman Coulter Onyx Counter; RBCs were subsequently stored at −70° C. until analysis. Results were normalized to 10^9 red blood cells. Patient results were expressed as average ±SEM (range).
MTXPG concentrations were determined using the methods described in Example II except that RBC extracts were not spiked with MTXPG. MTXPG concentrations were calculated by subtracting […]. To quantify MTX concentrations without enzymatic treatment, a second 100 μl aliquot of patient RBC extract was obtained but not treated with plasma or buffer. Rather, 200 μl water was added to the RBC extract prior to immediate deproteinization with 30 μl 70% perchloric acid as described above.
An exemplary determination of MTXPG concentration in the red blood cells of a patient on 2.5 mg per week MTX therapy follows. […]

[2] = target: T1, gamma glutamyl hydrolase (Homo sapiens, UniProt Q92820); assay: Enzymatic conversion of MTXPGs to MTX in RBC extract using plasma as source of gamma glutamyl hydrolase; format: biochemical; settings: for conversion to MTX: in the dark, 1000 nmol/L RBC
T1 construct: contacting the extract with plasma as a source of gamma glutamyl hydrolase; tissue Sigma P9523; host or cells: reconstituted lyophilized plasma (purchased), mixed with RBC hemolysate from healthy donors
T1 sequence (Q92820 25-318): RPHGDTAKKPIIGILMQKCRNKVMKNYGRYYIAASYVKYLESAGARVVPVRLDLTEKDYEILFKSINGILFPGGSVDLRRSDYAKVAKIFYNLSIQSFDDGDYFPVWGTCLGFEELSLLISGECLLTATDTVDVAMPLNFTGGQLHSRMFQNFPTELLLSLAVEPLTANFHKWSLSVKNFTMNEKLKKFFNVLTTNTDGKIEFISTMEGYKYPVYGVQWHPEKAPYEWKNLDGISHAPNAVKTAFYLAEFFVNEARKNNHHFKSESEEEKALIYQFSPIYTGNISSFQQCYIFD
Experimental: MTXPGs were enzymatically converted to MTX by incubation with RBC extract and plasma as follows. RBCs were isolated from healthy donors (Blood bank; San Diego, Calif.) Hemolysates were prepared having 0.88×10^9 RBC per 100 μl. For spiked samples, MTXPG (Schirks Laboratories; Jona, Switzerland) was added to RBC extracts at a final concentration of 1 μM (from stock solutions containing 100 μM MTXPG in 0.1 N potassium hydroxide). Reconstituted plasma was prepared from lyophilized plasma (Sigma, St. Louis, USA; Cat. No. P9523) and 100 μl was added to 50 μl of RBC extract, mixed for 30 seconds, and 100 μl of buffer containing 100 mM potassium phosphate pH 4.5 and 150 mM mercaptoethanol was added. […] Samples were incubated for 12-14 hours, unless otherwise indicated, in the dark at 37° C. After incubation 30 μl of 70% perchloric acid was added to the mixture, vortexed for 15 seconds and centrifuged for 10 minutes. A total volume of 80 μl was injected onto the HPLC system for analysis using the MTX detection system described in Example I.
The percent conversion of MTXPG to MTX was determined by comparing the peak area of MTX formed during the enzymatic conversion at different times with the peak area of MTX spiked in the red blood cells at the same concentration.

Row | Compound | MTX concentration prior to enzymatic conversion [1] [pmol MTXPG/10^9 cells] | slope of plot of observed MTX concentration versus spiked concentration ([2]; RBC sample spiked prior to deglutamation (FIG. 5)) | conversion to MTX ([2]; after 8 hour incubation at 37° C.) | conversion to MTX ([2]; by 4 hours, 37° C.)
1 | CN(Cc1cnc2nc(N)nc(N)c2n1)c1ccc(C(=O)N[C@@H](CCC(=O)O)C(=O)O)cc1 [MTX, methotrexate] | 16.5 |  |  | 
2 | CN(Cc1cnc2nc(N)nc(N)c2n1)c1ccc(C(=O)N[C@@H](CCC(=O)N[C@@H](CCC(=O)O)C(=O)O)C(=O)O)cc1 [MTXPG2] |  | 0.98 | completely converted | largely complete
